Measured values from patent publication US11957687B2 (REGENERON PHARMACEUTICALS, INC., priority 2019, dated 2024).
Like-named read-outs stand apart in the source and are kept apart here.

Assays:
HSD17B13 = HSD17B13 (Homo sapiens (Human), UniProt Q7Z5P4); assay: HSD17B13 enzymatic inhibition assay (150 nM or 50 nM HSD17B13); format: biochemical
[1] = Microsome stability assay, mouse liver microsomes; format: in vitro ADME; settings: 1 μM compound, 0.5 mg/mL microsomal protein
Method: (§1) Compounds of the disclosure were screened in microsome stability assays. For the screen, test compounds were incubated at 37° C. with either human liver microsomes (Corning; #452117) or mouse liver microsomes (XenoTech; #M1000), pooled from multiple donors, at 1 μM in the presence of a NADPH regenerating system at 0.5 mg/mL microsomal protein. Positive controls included in the assay were testosterone (3A4 substrate), propafenone (2D6) and diclofenac (2C9). Samples were removed at different time points (0, 5, 10, 20, 30 and 60 minutes) and immediately mixed with cold acetonitrile containing internal standard (IS, 200 ng/mL tolbutamide and 200 ng/mL labetalol). Test compounds incubated with microsomes for 60 minutes without the NADPH regenerating system was also included. A single point for each test condition (n=1) was obtained, and samples were analyzed by LC/MS/MS. Disappearance of the test compound was assessed based on peak area ratios of analyte/IS (no standard curve).

[2] = Microsome stability assay, human liver microsomes; format: in vitro ADME; settings: 1 μM compound, 0.5 mg/mL microsomal protein
Method: as §1

[3] = 50 nM HSD17B13, read-out: Inhibition of 50 nM of HSD17B13 IC50
[4] = mouse, mouse liver microsomes, pooled, NADPH, 37° C., read-out: Microsome Stability Mouse liver microsomes Cl
[5] = mouse, mouse liver microsomes, pooled, NADPH, 37° C., read-out: Microsome Stability Mouse liver microsomes T½
[6] = human, human liver microsomes, pooled, NADPH, 37° C., read-out: Microsome Stability Human liver microsomes Cl
[7] = human, human liver microsomes, pooled, NADPH, 37° C., read-out: Microsome Stability Human liver microsomes T½
[8] = 150 nM HSD17B13, read-out: Inhibition of 150 nM of HSD17B13 IC50

Sequence of HSD17B13 (Q7Z5P4 other isoform, or with tags, fused parts or gaps): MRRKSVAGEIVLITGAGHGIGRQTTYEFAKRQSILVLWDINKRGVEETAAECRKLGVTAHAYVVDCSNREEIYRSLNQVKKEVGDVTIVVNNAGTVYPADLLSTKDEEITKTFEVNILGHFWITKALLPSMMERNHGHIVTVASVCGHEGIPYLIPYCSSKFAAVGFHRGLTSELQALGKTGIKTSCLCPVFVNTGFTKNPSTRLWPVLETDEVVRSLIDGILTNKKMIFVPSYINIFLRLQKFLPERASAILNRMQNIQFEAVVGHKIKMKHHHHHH

Row | Structure (SMILES) | IC50 (HSD17B13; [3]) | Microsome Stability Mouse liver microsomes % Remaining @60 min [1] | microsomal CLint at 1 h, 1 µM [1, 4] | half-life at 1 h, 1 µM [1, 5] | Microsome Stability Human liver microsomes % Remaining @60 min [2] | microsomal CLint at 1 h, 1 µM [2, 6] | half-life at 1 h, 1 µM [2, 7] | microsomal CLint at 1 μM [1, 4] | half-life at 1 μM [1, 5] | IC50 (HSD17B13; [8]) | microsomal CLint at 1 μM [2, 6] | half-life at 1 μM [2, 7]
1 | CCC1Cc2cc(OC)ccc2C1NC(=O)c1ccc(C(F)(F)F)[nH]c1=O (stereo not drawn) [Compound 295, N-(2-ethyl-5-methoxy-2,3-dihydro-1H-inden-1-yl)-2-oxo-6-(trifluoromethyl)-1,2-dihydropyridine-3-carboxamide] | 100 nM | 69% | 12.7 µL/min/mg | 110 min | 1% | 221 µL/min/mg | 6.26 min | – | – | – | – | –
2 | CCCC1CCc2cc(C)ccc2C1NC(=O)c1ccc(C(F)(F)F)[nH]c1=O (stereo not drawn) [Compound 285, N-(6-methyl-2-propyl-1,2,3,4-tetrahydronaphthalen-1-yl)-2-oxo-6-(trifluoromethyl)-1,2-dihydropyridine-3-carboxamide] | 30 nM | 11.20% | 70.7 µL/min/mg | 19.6 min | 1.49% | 137 µL/min/mg | 10.1 min | – | – | – | – | –
3 | CCCC1=Cc2cc(C)ccc2C1NC(=O)c1ccc(C(F)(F)F)[nH]c1=O (stereo not drawn) [Compound 341, N-(5-methyl-2-propyl-1H-inden-1-yl)-2-oxo-6-(trifluoromethyl)-1,2-dihydropyridine-3-carboxamide] | 70 nM | 54.30% | 19.4 µL/min/mg | 71.3 min | 1.70% | 132 µL/min/mg | 10.5 min | – | – | – | – | –
4 | CCCC1CCc2cc(Cl)ccc2C1NC(=O)c1ccc(C(F)(F)F)[nH]c1=O (stereo not drawn) [Compound 286, N-(6-chloro-2-propyl-1,2,3,4-tetrahydronaphthalen-l-yl)-2-oxo-6-(trifluoromethyl)-1,2-dihydropyridine-3-carboxamide] | 190 nM | 38.20% | 29.6 µL/min/mg | 46.9 min | 27.10% | 42.9 µL/min/mg | 32.3 min | – | – | – | – | –
5 | CCC1CCc2cc(O)ccc2C1NC(=O)c1ccc(C(F)(F)F)[nH]c1=O (stereo not drawn) [Compound 284, N-(2-ethyl-6-hydroxy-1,2,3,4-tetrahydronaphthalen-1-yl)-2-oxo-6-(trifluoromethyl)-1,2-dihydropyridine-3-carboxamide] | 340 nM | 76.40% | – | – | 70.70% | 9.82 µL/min/mg | 141 min | < 9.6 µL/min/mg | > 145 min | – | – | –
6 | CCC1Cc2cc(OC)ccc2C(NC(=O)c2ccc(C(F)(F)F)[nH]c2=O)C1 (stereo not drawn) [Compound 390, N-(3-ethyl-6-methoxy-1,2,3,4-tetrahydronaphthalen-1-yl)-2-oxo-6-(trifluoromethyl)-1,2-dihydropyridine-3-carboxamide] | 70 nM | 62.80% | 16.8 µL/min/mg | 82.3 min | 11% | 151 µL/min/mg | 9.15 min | – | – | – | – | –
7 | Cc1ccc2c(c1)CCC(C)C2NC(=O)c1ccc(C(F)(F)F)[nH]c1=O (stereo not drawn) [Compound 294, N-(2,6-dimethyl-1,2,3,4-tetrahydronaphthalen-1-yl)-2-oxo-6-(trifluoromethyl)-1,2-dihydropyridine-3-carboxamide] | 90 nM | 33.80% | 33.4 µL/min/mg | 41.5 min | 0.10% | 643 µL/min/mg | 2.15 min | – | – | – | – | –
8 | CCC[C@@H]1C[C@H](NC(=O)c2ccc(C(F)(F)F)[nH]c2=O)c2ccc(C)cc2N1 [Compound 368, N-((2R,4S)-7-methyl-2-propyl-1,2,3,4-tetrahydroquinolin-4-yl)-2-oxo-6-(trifluoromethyl)-1,2-dihydropyridine-3-carboxamide] | 370 nM | 56.20% | 18.1 µL/min/mg | 76.4 min | 51.70% | 23.4 µL/min/mg | 59.3 min | – | – | – | – | –
9 | Cc1ccc(C(CC2CCC2)NC(=O)c2ccc(C(F)(F)F)[nH]c2=O)cc1 (stereo not drawn) [Compound 557, N-(2-cyclobutyl-1-(p-tolyl)ethyl)-2-oxo-6-(trifluoromethyl)-1,2-dihydropyridine-3-carboxamide] | 140 nM | 65% | 14.4 µL/min/mg | 96.3 min | 1% | 437 µL/min/mg | 3.17 min | – | – | – | – | –
10 | CCCC1Cc2ccc(C)cc2C1NC(=O)c1ccc(C(F)(F)F)[nH]c1=O (stereo not drawn) [Compound 291, N-(6-methyl-2-propyl-2,3-dihydro-1H-inden-1-yl)-2-oxo-6-(trifluoromethyl)-1,2-dihydropyridine-3-carboxamide] | – | 52.20% | 21.3 µL/min/mg | 65 min | 17.90% | 54.5 µL/min/mg | 25.5 min | – | – | – | – | –
11 | Cc1ccc(C(NC(=O)c2ccc(C(F)(F)F)[nH]c2=O)c2ccccc2)cc1C (stereo not drawn) [Compound 2A, N-((3,4-dimethylphenyl)(phenyl)methyl)-2-oxo-6-(trifluoromethyl)-1,2-dihydropyridine-3-carboxamide] | 280 nM | – | – | – | 0.10% | 515 µL/min/mg | 2.7 min | – | – | 1570 nM | – | –
12 | O=C(NC(c1ccccc1)c1cccc(O)c1)c1ccc(C(F)(F)F)[nH]c1=O (stereo not drawn) [Compound 18, N-((3-hydroxyphenyl)(phenyl)methyl)-2-oxo-6-(trifluoromethyl)-1,2-dihydropyridine-3-carboxamide] | 2480 nM | – | – | – | 36.60% | 33 µL/min/mg | 42 min | – | – | – | – | –
13 | O=C(NC(c1ccccc1)c1ccccc1O)c1ccc(C(F)(F)F)[nH]c1=O (stereo not drawn) [Compound 35, N-((2-hydroxyphenyl)(phenyl)methyl)-2-oxo-6-(trifluoromethyl)-1,2-dihydropyridine-3-carboxamide] | – | – | – | – | 14.90% | 63.4 µL/min/mg | 21.9 min | – | – | 2780 nM | – | –
14 | O=C(NC(c1ccccc1)c1ccc(Oc2ccccc2)cc1)c1ccc(C(F)(F)F)[nH]c1=O (stereo not drawn) [Compound 16, N-((4-phenoxyphenyl)(phenyl)methyl)-2-oxo-6-(trifluoromethyl)-1,2-dihydropyridine-3-carboxamide] | 970 nM | – | – | – | 23.30% | – | – | – | – | – | 45.2 µL/min/mg | 30.7 min
15 | COc1ccc2c(c1)CCC2NC(=O)c1ccc(C(F)(F)F)[nH]c1=O (stereo not drawn) [Compound 134, N-(5-methoxy-2,3-dihydro-1H-inden-1-yl)-2-oxo-6-(trifluoromethyl)-1,2-dihydropyridine-3-carboxamide] | 1410 nM | – | – | – | 0.27% | 410 µL/min/mg | 3.38 min | – | – | – | – | –
